Where two headings read alike, the source gives them in different places.
Experiments:
[1] = system: human prostate cancer cells; details: cited from earlier work
Connexin43 (Cx43) = experiment: Relative Cx43 protein levels by Western blot in C3H10T1/2 cells (Example 3); assay type: cell-based; details: Mus musculus, C3H 10T1/2, 168 h, read-out: Fold induction of Cx43 expression
Source text: Treatments/Compounds._TTNPB (Biomol, Plymouth Meeting, Pa.); stock 5×10^−6M in acetone, diluted 1:500 in culture media (final 10^−8 M in 0.2% acetone). Lycophyll (All-trans, 95% pure, Hawaii Biotech, Inc., Aiea, Hi.); stocks 10^−2 M and 10^−3 M in tetrahydroftiran (THF; Sigma, St. Louis, Mo.) diluted 1:1000 and stirred into culture media immediately before treatment (final 10^−5 M and 10^−6 M in 0.1% THF). Lycopene (92.7% pure, Chromadex, Inc., Santa Ana, Calif.); stocks 10^−2 M and 10^−3 M in tetrahydrofuran (Sigma, St. Louis, Mo.) diluted 1:1000 and stir into culture media immediately before treatment (final 10^−5 M and 10^−6 M in 0.1% THF). […]
SDS-PAGE Electrophoresis, Transfer and Immunodetection. […] Lysates were sonicated and protein concentrations quantified using the BCA protein determination assay (Pierce, Rockford, Ill.). […] Protein standards were utilized to confirm molecular weight of detected protein (SeeBlue, Invitrogen, Carlsbad, Calif.). […] Cx43 protein was detected according to the manufacturer's instructions using the WesternBreeze Immunodetection Kit (Invitrogen, Carlsbad, Calif.) and a rabbit primary antibody reactive against the cytoplasmic tail of Cx43 (1:2000, Sigma, St. Louis, Mo.).
Quantification of Relative Western Blot Cx43 Protein Levels. […]

CX43 = CX43 plaques by indirect immunofluorescence in 10T1/2 cells; assay type: cell-based, Mouse; details: 10^−6 M, 4 days
Method: Analysis of CX43 protein by indirect immunofluorescence. Expression and assembly of CX43 into plaques was assessed by immunofluorescence staining essentially as described in Rogers et al, 1990, which is incorporated herein by reference. Briefly, confluent cultures of 10T1/2 cells were grown on Permanox plastic 4-chamber slides (Nalge Nunc International, Naperville, Ill.) and treated for 4 days as described above. Cells were fixed with −20° C. methanol overnight, washed in buffer, blocked in 1% bovine serum albumin (Sigma, St. Louis, Mo.) in PBS, incubated with the rabbit anti-CX43 antibody, and visualized with Alexa568 conjugated anti-rabbit secondary antibody (Molecular Probes, Eugene, Oreg.). Images were acquired with a Zeiss Axioplan microscope and a Roper Scientific cooled CCD camera.

10T1/2 cells [2] = experiment: Gap junctional communication, scrape-loading dye transfer assay; assay type: cell-based, Mouse; details: 7 days
Method: Gap junctional communication assay. Junctional permeability was assayed by the scrape-loading dye transfer assay essentially as described in El-Fouly et al., 1987, which is incorporated herein by reference. Briefly, confluent cultures of 10T1/2 cells grown in 60 mm dishes were treated with the indicated compounds for 7 days. The treated cells were washed with Ca^+2-free phosphate-buffered saline (PBS). 1.5 ml of Lucifer Yellow CH (Sigma, St. Louis, Mo.) 0.2% in PBS was then added, and linear cuts were made on the monolayer using a surgical scalpel. The cultures were incubated for 2 minutes at 37° C. then rinsed thoroughly with PBS. The cultures were then fixed with 2 ml of 5% formaldehyde in PBS. Images were digitally quantitated by intensity thresholding using the SigmaScan software program (Jandel Scientific, San Rafael, Calif.).

10T1/2 cells [3] = assay type: cell-based, Mouse; details: for % Inhibition of MCA-induced transformation: 4 week period; for Foci/dish (mean Type II + Type III foci, 24 dishes): 4 week period after MCA
Method: Inhibition of MCA-induced neoplastic transformation in 10T1/2 cells. Cells were initiated with methylcholanthrene (MCA) […] (Sigma, St. Louis, Mo.) in acetone for 24 hours. Potential inhibitors of neoplastic transformation were added 7 days after removal of carcinogen as indicated and were renewed weekly by adding fresh medium supplemented with the appropriate drug for four weeks after removal of the carcinogen. The cultures were fixed and stained as described above. A total of 24 dishes of cells were used per treatment group. Type II and III foci were identified and then quantitated as described in Bertram et al., 1990, which is incorporated herein by reference.
Statistical analysis. Transformation data was analyzed by one-tailed, two-sample t-tests that incorporated unequal variances. The scrape-loading data was analyzed by paired t-tests.

CX43 protein = CX43 protein expression in 10T1/2 cells by Western blotting (Example 1); assay type: cell-based, Mouse; details: 4 days
Method: Cell lines and culture conditions. Mouse embryonic fibroblast 10T1/2 cells were cultured in Eagle's basal medium with Earle's salts supplemented with 4% fetal calf serum (Atlanta Biologicals, Norcross, Ga.), 25 μg/ml gentamicin sulfate (Sigma, St. Louis, Mo.), and passaged by trypsin/EDTA (Gibco Invitrogen, Carlsbad, Calif.) and maintained at 37° C. in a 5% CO2 atmosphere. The cells were allowed to grow until a monolayer was formed. The confluent cells were treated 7 days after seeding, unless otherwise indicated. dAST was prepared in a formulation of 20% EtOH and sterile water (0.2% final EtOH ) to minimize supramolecular aggregation, and the final concentration of EtOH in culture medium was 0.2%. CTX was dissolved in THF and added to media. TTNPB was dissolved in acetone (Sigma, St. Louis, Mo.) and cultures received a final acetone concentration of 0.1%.
Analysis of CX43 protein expression. Expression of CX43 protein in 10T1/2 cells was assessed by Western blotting. 10T1/2 cell monolayers were treated with the indicated carotenoid derivatives or with retinoids (as a positive control for the modulation of CX43 expression) 7 days after seeding in 100 mm dishes (Fisher Scientific, Pittsburgh, Pa.). Fours days after the drug was added to the cells, the cells were harvested, total cellular protein was isolated and the total protein concentration thereof was determined using a commercially available Protein Assay Reagent kit (Pierce Chemical Co., Rockford, Ill.). 40 μg of total cellular protein was resolved on an SDS-PAGE gel, transferred to a nitrocellulose membrane, and analyzed by Western blotting using the NuPage Western blotting kit (Invitrogen, Carlsbad, Calif.). CX43 was detected using a rabbit polyclonal antibody (Zymed, San Francisco, Calif.) raised against a synthetic polypeptide corresponding to the C-terminal domain common to mouse, human and rat CX43. Equal protein loafing was verified by immunoblotting for GAPDH, the expression of which is unaffected by treatment with retinoids or carotenoids, using a rabbit polyclonal GAPDH antibody was also used (Zymed, San Francisco, Calif.). CX43 and GAPDH immunoreactive bands were visualized by chemiluminescence using an anti-rabbit HRP-conjugated secondary antibody (Pierce Chemical Co., Rockford, Ill.). Images were obtained by exposure to X-ray film as previously described and scanned for digital analysis on the Fluoro-S Imager (Bio-Rad, Richmond, Calif.).

[4] = Determination of aqueous solubility/dispersibility; assay type: physicochemical; details: USP-purified water, 2 hours, supernatant by UV/Vis
Method: (§1) Determination of aqueous solubility/dispersibility. 30.13 mg of 3 was added to 1 mL of USP-purified water. The sample was rotated for 2 hours, then centrifuged for 5 minutes. After centrifuging, solid was visible in the bottom of the tube. A 125-μL aliquot of the solution was then diluted to 25 mL. The sample was analyzed by UV/Vis spectroscopy at 436 nm, and the absorbance was compared to a standard curve compiled from 4 standards of known concentration. The concentration of the original supernatant was calculated to be 2.85 mg/mL and the absorptivity was 36.94 AU*mL/cm*mg. Slight error may have been introduced by the small size of the original aliquot.
as §1, with “Next, 30.80” for “Determination of aqueous solubility/dispersibility. 30.13”, “9” for “3”, “UViis” for “UV/Vis”, “411” for “436”, “The concentration of the original supernatant was calculated to be 2.85 mg/mL and the absorptivity was 36.94 AU*mL/cm*mg.” left out
Determination of aqueous solubility/dipsersibility of pAST. 23.70 mg of tetrasodium diphosphate astaxanthin was added to 1 ml of USP purified water. The mixture was stirred for 2 hours, and centrifuged for 5 minutes. The solution was diluted in water and analyzed by UV/vis spectroscopy at 480 nm and absorbance was compared to a standard curve compiled from 4 standards of known concentration.

Question: Which “apoptosis of prostate cancer cells” value ([1]; Ghosh et al.) does the source give for `CC(C)c1ccc2c(c1)c(SC(C)(C)C)c(CC(C)(C)C(=O)O)n2Cc1ccc(Cl)cc1` [MK886] here?
Answer: massive apoptosis

Question: What about the “cells in culture killed” value ([1]; concentration of 10 mM) of the same compound?
Answer: more than 90%

Question: Which results are given for `CC(C)=CCC/C(C)=C/C=C/C(C)=C/C=C/C(C)=C/C=C/C=C(C)/C=C/C=C(C)/C=C/C=C(\C)CCC=C(C)C` [lycopene, reference compound]?
Answer: fold induction at 1 µM (Connexin43 (Cx43)): 1.55; fold induction at 10 µM (Connexin43 (Cx43)): 1.51

Question: Which results are given for `CC1=C(/C=C/C(C)=C/C=C/C(C)=C/C=C/C=C(C)/C=C/C=C(C)/C=C/C2=C(C)C(=O)C(OP(=O)([O-])[O-])CC2(C)C)C(C)(C)CC(OP(=O)([O-])[O-])C1=O.[Na+].[Na+].[Na+].[Na+]` (stereo not shown) [pAST, tetrasodium diphosphate astaxanthin]?
Answer: CX43 immunoreactive plaques at regions of cell/cell apposition (CX43): increased the prevalence of CX43 immunoreactive plaques; increase of GJIC (dye transfer) over untreated control cultures (10T1/2 cells [2]; 10^−9 M): approximately 4 fold; relative amount of GJIC over concentration range (10T1/2 cells [2]; concentrations ranging from 10^−10 to 10^−6 M): remained constant over a 4-log concentration range; cumulative toxicity, monolayer formation (10T1/2 cells [3]; 10^−5 M for 4 weeks): failed to form complete monolayers; neoplastic transformation (10T1/2 cells [3]; 10^−5 M for 4 weeks): strongly inhibited; % Inhibition of MCA-induced transformation (10T1/2 cells [3]; 10^−6 M): 100%; Foci/dish (mean Type II + Type III foci, 24 dishes) (10T1/2 cells [3]; 10^−6 M): No foci; Foci/dish (mean Type II + Type III foci, 24 dishes) (10T1/2 cells [3]; 10^−6 M, listed as drawing 75): 0 foci/dish; % Inhibition of MCA-induced transformation (10T1/2 cells [3]; 10^−7 M): 44%; Foci/dish (mean Type II + Type III foci, 24 dishes) (10T1/2 cells [3]; 10^−7 M): substantially lowered levels of neoplastic transformation; Foci/dish (mean Type II + Type III foci, 24 dishes) (10T1/2 cells [3]; 10^−7 M, listed as drawing 75): 0.91 foci/dish; % Inhibition of MCA-induced transformation (10T1/2 cells [3]; 10^−8 M): 36%; Foci/dish (mean Type II + Type III foci, 24 dishes) (10T1/2 cells [3]; 10^−8 M): substantially lowered levels of neoplastic transformation; Foci/dish (mean Type II + Type III foci, 24 dishes) (10T1/2 cells [3]; 10^−8 M, listed as drawing 75): 1.04 foci/dish; CX43 protein induction versus solvent-treated controls (CX43 protein; 10^−5 M): no change; CX43 protein induction versus solvent-treated controls (CX43 protein; 10^−6 M): about 5 fold; CX43 protein induction versus solvent-treated controls (CX43 protein; 10^−7 M): ~2 fold; aqueous solubility/dispersibility [4]: 25.21 mg/mL

From patent US20060276372A1, “Carotenoids, carotenoid analogs, or carotenoid derivatives for the treatment of proliferative disorders” (priority 2005, published 2006)
